Test results: ChEMBL document CHEMBL3425452, “Farnesyl diphosphate synthase inhibitors with unique ligand-binding geometries” (ACS Med Chem Lett, 2015)

Experiments:
[1] = Inhibition of Leishmania donovani FPPS
[2] = tested on: Trypanosoma brucei rhodesiense; assay: Growth inhibition of Trypanosoma brucei rhodesiense
[3] = Inhibition of Trypanosoma brucei FPPS

Structure (SMILES)	IC50 [1]	EC50 [2]	IC50 [3]
O=P(O)(O)C(O)(CCc1cccnc1)P(=O)(O)O	5.4 µM	1.7 µM	33 µM
Cc1cccnc1NC(P(=O)(O)O)P(=O)(O)O	–	–	0.23 µM
O=P(O)(O)C(O)(Cc1cccnc1)P(=O)(O)O [RISEDRONIC ACID]	–	–	0.3 µM
